Results from patent publication US12551482B2, “Aurora kinase inhibitors” (The Regents of the University of California, priority 2013, dated 2026).
Entries after “also recorded” stand apart in the source; their conditions may differ. Like-named read-outs stand apart in the source and are kept apart here.

Key:
MYCN-Aurora A complex = biological target: T1, MYCN-Aurora A complex (Homo sapiens, UniProt O14965); test: Pulldown of MYCN and immunoblot for Aurora A; type: cell-based; details: MYCN-amplified IMR32 cells, 4 hrs MG-132, 2 hrs drug, increasing concentrations
T1 construct: Representative immunoprecipitation of MYCN and immunoblots from MYCN-amplified IMR32 cells; endogenous in cells
T1 sequence (O14965 whole entry, one chain of several): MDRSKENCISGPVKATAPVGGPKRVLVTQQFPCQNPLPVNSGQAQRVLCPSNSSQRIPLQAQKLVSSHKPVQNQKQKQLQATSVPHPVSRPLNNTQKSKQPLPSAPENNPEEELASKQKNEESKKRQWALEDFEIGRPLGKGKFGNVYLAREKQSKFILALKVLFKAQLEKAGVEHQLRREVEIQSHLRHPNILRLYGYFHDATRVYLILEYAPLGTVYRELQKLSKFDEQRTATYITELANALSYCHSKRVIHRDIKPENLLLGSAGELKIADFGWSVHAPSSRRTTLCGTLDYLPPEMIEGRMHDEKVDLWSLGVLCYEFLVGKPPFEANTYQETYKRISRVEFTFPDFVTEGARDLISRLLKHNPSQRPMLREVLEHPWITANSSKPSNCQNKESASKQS

MYCN-MAX = test: Immunoprecipitation of MYCN and immunoblot for MAX; type: cell-based; details: SK-N-BE(2) cells, 2 hrs
Protocol: Pulldowns were performed with anti-N-Myc antibody (Santa Cruz, SC-53993) and Protein G sepharose beads (Sigma-Aldrich, P3296). Immunoblots were performed as described above.

[1] = Pharmacokinetics of CD532 in mice; type: in vivo; details: mouse, serum, ip, 20 mg/kg, intraperitoneal injection
RPMI-7951 = test: Cancer cell line profiling, Genomics of Drug Sensitivity Project
IPC-298 = test: as above; details: Homo sapiens, IPC-298, read-out: CD532 EC50 (uM)
MEL-HO = test: as above; details: read-out: CD532 EC50 (uM)
RVH-421 = test: as above; details: Homo sapiens, RVH-421, read-out: CD532 EC50 (uM)
SK-MEL-3 = test: as above; details: Homo sapiens, SK-MEL3, read-out: CD532 EC50 (uM)
FU97 = test: as above; details: Fu97, read-out: CD532 EC50 (uM)
SNU-5 = test: as above; details: Homo sapiens, SNU-5, read-out: CD532 EC50 (uM)
NCI-N87 = test: as above; details: Homo sapiens, NCI-N87, read-out: CD532 EC50 (uM)
HTC-C3 = test: as above; details: Homo sapiens, HTC-C3, read-out: CD532 EC50 (uM)
BICR 10 = test: as above; details: read-out: CD532 EC50 (uM)
HO-1-N-1 = test: as above; details: read-out: CD532 EC50 (uM)
SCC-4 = test: as above; details: Homo sapiens, SCC-4, read-out: CD532 EC50 (uM)
OSC-20 = test: as above; details: read-out: CD532 EC50 (uM)
CL-11 = test: as above; details: CL-11, read-out: CD532 EC50 (uM)
NH-12 = test: as above; details: read-out: CD532 EC50 (uM)
SK-HEP-1 = test: as above; details: Homo sapiens, SK-HEP1, read-out: CD532 EC50 (uM)
JHH-4 = test: as above; details: JHH-4, read-out: CD532 EC50 (uM)
HLE = test: as above; details: Homo sapiens, read-out: CD532 EC50 (uM)
A101D = test: as above; details: Homo sapiens, read-out: CD532 EC50 (uM)
LB996-RCC = test: as above; details: read-out: CD532 EC50 (uM)
NB17 = test: as above; details: read-out: CD532 EC50 (uM)
SH-4 = test: as above; details: Homo sapiens, SH-4, read-out: CD532 EC50 (uM)
SK-MEL-5 = test: as above
Hs, 766T = test: as above; details: Hs766T, read-out: CD532 EC50 (uM)

Question: Which “MYCN-Aurora A interaction” value (MYCN-Aurora A complex) does the source give for `O=C(Nc1ccc(Nc2nccc(Nc3cc(C4CCCC4)[nH]n3)n2)cc1)Nc1cccc(C(F)(F)F)c1` [CD532, 1-(4-((4-((5-cyclopentyl-1H-pyrazol-3-yl)amino)pyrimidin-2-yl)amino)phenyl)-3-(3-(trifluoromethyl)phenyl)urea] here?
Answer: complete and dose-dependent loss of Aurora A/MYCN interaction; also recorded: dose-dependent and complete dissociation of the MYCN-Aurora A complex

Question: And the MYCN-MAX binding (MYCN-MAX)?
Answer: did not affect MYCN-MAX binding

Question: What about the half-life [1] of the same molecule?
Answer: ~1.5 h

Question: What about the AUC(0-t) ([1]; read-out: AUC0-24) of the same molecule?
Answer: 27 µM·h

Question: And the EC50 (RPMI-7951; Homo sapiens, RPMI-7951, read-out: CD532 EC50 (uM), RPMI-7951 cell line, Skin)?
Answer: 1.06 µM

Question: And the EC50 (RPMI-7951; read-out: CD532 EC50, RPMI-7951 cell line, Skin)?
Answer: 0.952 µM

Question: And the EC50 (IPC-298)?
Answer: 0.574 µM

Question: What about the EC50 (MEL-HO) of the same molecule?
Answer: 0.411 µM

Question: And the EC50 (RVH-421)?
Answer: 0.585 µM

Question: And the EC50 (SK-MEL-3)?
Answer: 0.567 µM

Question: And the EC50 (FU97)?
Answer: 0.545 µM

Question: And the EC50 (SNU-5)?
Answer: 2.51 µM

Question: And the EC50 (NCI-N87)?
Answer: 10.9 µM

Question: What about the EC50 (HTC-C3) of the same molecule?
Answer: 0.915 µM

Question: And the EC50 (BICR 10)?
Answer: 4.27 µM

Question: And the EC50 (HO-1-N-1)?
Answer: 1.67 µM

Question: And the EC50 (SCC-4)?
Answer: 0.884 µM

Question: What about the EC50 (OSC-20) of the same molecule?
Answer: 1.23 µM

Question: And the EC50 (CL-11)?
Answer: 4.93 µM

Question: What about the EC50 (NH-12) of the same molecule?
Answer: 0.37 µM

Question: And the EC50 (SK-HEP-1)?
Answer: 1.6 µM

Question: And the EC50 (JHH-4)?
Answer: 1.35 µM

Question: What about the EC50 (HLE) of the same molecule?
Answer: 0.567 µM

Question: And the EC50 (A101D)?
Answer: 0.429 µM

Question: And the EC50 (LB996-RCC)?
Answer: 2.08 µM

Question: And the EC50 (NB17)?
Answer: 0.282 µM

Question: And the EC50 (SH-4)?
Answer: 0.783 µM

Question: And the EC50 (SK-MEL-5; Homo sapiens, SK-MEL-5, read-out: CD532 EC50 (uM), SK-MEL-5 cell line, Skin)?
Answer: 0.525 µM

Question: What about the EC50 (SK-MEL-5; read-out: CD532 EC50, SK-MEL-5 cell line, Skin) of the same molecule?
Answer: 0.366 µM

Question: What about the EC50 (Hs, 766T) of the same molecule?
Answer: 2.45 µM
